Two compounds from the NIST ThermoML archive (doi:10.1021/je1004643) can be followed below.

The conditions of series [1]: Liquid; for mass density: 298.15 K, 101.33 kPa; for Normal boiling temperature: Ebulliometric method (Recirculating still).
The nature of series [2]: refractive index (Na D-line) (dimensionless). The conditions noted are these: 298.15 K; 101.33 kPa; Liquid; Standard Abbe refractometry.

A word on the mass density: it is mass per unit of volume. The term refractive index denotes a measure of how strongly the sample bends light.

± gives the expanded uncertainty stated by the source.

For the compound `CCC(C)=O` [butanone], in series [1], the mass density came out at 799.62 ± 0.46 kg/m3 and the Normal boiling temperature came to 79.53 ± 0.3 °C. In addition, in series [2], the refractive index came out at 1.3761 ± 0.0005.

For `CCC(C)O` (stereo unspecified) [butan-2-ol], in series [1], the mass density is reported as 802.35 ± 0.79 kg/m3 and the Normal boiling temperature was 99.41 ± 0.3 °C. For the same compound, in series [2], the refractive index amounted to 1.3951 ± 0.0005.
